Values joined by “and” are separate entries in the source; they are usually repeats but may differ in a detail not shown here. Equal values may be shown once.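 The compound was tested at five concentrations on cells cultured in 96-well plates, with a 48-hour exposure period. GI50: concentration for 50% inhibition of growth. At the TGI there is no net growth.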

Holding throughout (assay): NCI anticancer screen, dose series, 48 h
Assay [1] relates to EKVX NSCLC.
Assay [2] has as its system MALME-3M melanoma.
Assay [3] deals with MCF7 breast.
Assay [4] concerns NCI/ADR-RES ovarian.
Assay [5] deals with OVCAR-4 ovarian.
The subject of assay [6] is OVCAR-5 ovarian.
In assay [7] the test system is SK-MEL-5 melanoma.
In assay [8] the test system is SN12C renal.
Assay [9] concerns UO-31 renal.

Consider `C=CO/N=[N+](\[O-])N(CC)CC`, for which the TGI in [1], in assay [2], in assay [3], in assay [4], in assay [5] and in assay [6] was above 100 µM throughout. The TGI in assay [7] and in assay [8] was above 100 µM in each case.

Consider `CCOC(=O)NC(=O)c1cn(CCN2CCN(C(=O)CNC(=O)CNC(=O)Cn3cc(C(=O)NC(=O)OCC)c(=O)[nH]c3=O)CC2)c(=O)[nH]c1=O`, for which the TGI in [2], in [6], in [8] and in assay [9] was above 100 µM in each case.

`COc1cc(-c2nc3ccccc3s2)ccc1OCCCCOc1cc2c(cc1OC)C(=O)N1CCC[C@H]1C=N2`: the GI50 in assay [1] was 2.24 µM; in assay [2] it was 1.55 µM; in assay [3], 0.471 µM; in assay [4], 2.13 µM; in [5], 1.5 µM; in [6] it was 1.13 µM. The GI50 in assay [7] is 0.724 µM; in assay [8], 1.39 µM; in assay [9], 1.17 µM. Besides, the TGI in assay [1] amounted to 5.51 µM; in [2], 3.46 µM; in [3], 3.57 µM; in [4] it was 6.12 µM; in assay [5] it was 7.61 µM; in assay [6] it was 4.93 µM. In addition, the TGI in [7] turned out to be 2.01 µM; in assay [8], 3.87 µM; in assay [9], 4.06 µM.

In the case of `CC(C)N(C(=O)c1cccc(C(=O)N(C(C)C)C(C)C)c1)C(C)C`, the TGI in [1], in assay [2], in [5], in assay [6], in assay [7] and in [8] was above 100 µM throughout. The compound further had a TGI in [9] above 100 µM.

Turning to `C#CC1(O)CCC2C3CCc4cc(Oc5nc(F)nc(-c6c7ccccc7c7n6CCS7)n5)ccc4C3CC[C@@]21C` (some centres not stated), the TGI in assay [2] is above 100 µM; in assay [5], 68.6 µM; in [6] it was above 100 µM; in [7], 45.5 µM; in [9], 78.3 µM.

With `COc1ccccc1N=Nc1c(-c2ccccc2)nn(C(=O)CC(=O)Nc2cccc(C)c2)c1-c1ccccc1`, the TGI in assay [1] was above 100 µM; in [2], above 100 µM; in assay [5], above 100 µM; in assay [6] it was above 100 µM; in [7] it was 97.8 µM; in [8] it was above 100 µM. In addition, the TGI in assay [9] is above 100 µM.

For `COC(=O)CCC(NC(=S)N/N=C(\C)c1ccc[nH]1)C(=O)OC` (configuration not stated), the TGI in assay [1], in [2], in [5], in [6], in assay [7] and in [8] was above 100 µM throughout. For the same compound, the TGI in [9] was above 100 µM.

With `CC(C)/C=C1\CCC(CN2CCOCC2)C1=O` (configuration not stated), the TGI in assay [1] turned out to be 36.8 µM; in [2], 31 µM; in assay [5], 40 µM; in assay [6], 39.4 µM; in [7], 36.8 µM; in assay [8], 36.5 µM. In [9], this compound showed a TGI of 38.6 µM.

Consider `ClC(Cl)=C(Cl)C1(Cl)CC1COCc1ccccc1` (configuration not stated), for which the TGI in assay [1] was above 100 µM; in [2] it was 43.7 µM; in assay [5], above 100 µM; in assay [6], above 100 µM; in assay [7], 31.8 µM; in [8], above 100 µM. The compound further registered a TGI in assay [9] of 74.1 µM.

For the compound `C=CCn1c(=S)sc2c(C(=O)OCC)c3c(C)cc(C)cn3c2c1=O`, the TGI in assay [1], in [2], in assay [6], in [7], in assay [8] and in assay [9] was above 100 µM throughout.

As for `O=c1cccccc1[O-].O=c1cccccc1[O-].O=c1cccccc1[O-].[Eu+3]`, the TGI in assay [1], in assay [2], in assay [5], in [6], in [7] and in assay [8] was above 100 µM throughout. Further, in [9], the TGI is above 100 µM. In addition, the GI50 in [8] was 56.6 µM.

With `Cc1c(C(=O)C/C(=N/NC(=O)c2ccccc2)C(=O)Nc2ccc(Cl)cc2)[n+](=O)c2ccccc2n1[O-]`, the TGI in [2], in assay [5], in assay [6], in assay [7] and in assay [8] was above 100 µM each time.

In the case of `CCC[CH2][Sn]([CH2]CCC)([O]C(=O)c1cc(OC)c(OC)cc1OC)[O][Sn]([CH2]CCC)([CH2]CCC)[O]C(=O)c1cc(OC)c(OC)cc1OC`, the GI50 in [1] was 1.7 µM; in assay [2], 0.229 µM; in assay [5], 1.33 µM; in [6], 1.75 µM; in assay [7], 0.898 µM; in assay [8], 0.532 µM. In addition, the GI50 in assay [9] is 1.33 µM. Moreover, the TGI is 3.09 µM in assay [1]; 0.977 µM in assay [2]; 2.96 µM in assay [5]; 3.14 µM in assay [6]; 2.15 µM in assay [7]; 1.72 µM in assay [8]. Moreover, in [9], the TGI was determined as 2.6 µM.

Take `CCC1(O)CC(OC2CC(N(C)C)C(OC3CC(O)C(OC4OC(C)C(=O)C=C4N)C(C)O3)C(C)O2)c2c(cc3c(c2O)C(=O)c2c(O)cccc2C3=O)C1C(=O)OC` (configuration not stated): the GI50 in [1] was 0.0327 µM; in assay [2], 0.0208 µM; in assay [4] it was 1.86 µM; in [6] it was 0.0152 µM; in assay [8], 0.0924 µM; in assay [9], 0.106 µM. The TGI in assay [1] is 0.539 µM and 1.43 µM; in [2], 0.233 µM and 0.137 µM; in [3] it was 0.756 µM and 2.64 µM; in [4] it was 5.5 µM and 27 µM; in [6] it was 1.37 µM and 2.04 µM; in assay [7] it was 0.179 µM and 0.101 µM. For the same compound, the TGI is 1.51 µM and 2.29 µM in [8]; 0.96 µM and 0.809 µM in [9].

The record behind these values is PubChem BioAssay (NCI).
